Assay results as given in US4399125A, “Novel antagonists of the antidiuretic action of arginine vasopressin” (priority 1981, dated 1983).
*1 amine or outer side, *2 acyl side, *3 side chain or, on linkers, in order; H or OH if unused. Where a SMILES comes first, the peptide text is derived from it. Bridges are numbered along the chain shown (N, C = ends). [ ]: non-standard residue; d: D form. The star is where a group is joined. X1 = O=C(CC1(S[*:2])CCCCC1)[*:1]; Propyl = CCC*; iPr = CC(C)*

How the values were obtained:
[1] = system: antidiuretic activity (urine flow); settings: prior art statement; cited from earlier work
[2] = system: vasopressor response to AVP; settings: prior art statement; cited from earlier work
[3] = system: antidiuretic response to ADH (arginine vasopressin); experiment: Antagonism of the antidiuretic response to ADH (anti-antidiuretic potency) in ethanol-anesthetized water-loaded rats; settings: estimated in vivo pA2 = negative logarithm of effective dose divided by estimated volume of distribution (67 mL/kg); (n) in parentheses
Experimental: Activity as antidiuretic agonists was determined by intravenous injection of compounds being evaluated into ethanol-anesthesized water-loaded rats in accordance with Sawyer et al., Endocrinology, vol. 63 (1958) at 694.
(§1) Antagonistic potencies were determined and expressed as "effective doses" and as pA2 values. The "effective dose" is defined as the dose (in nanomoles per kilogram) that reduces the response seen from 2x units of agonist injected 20 min after the dose of antagonist to the response with 1x units of agonist.

[4] = system: vasopressor response to AVP; experiment: Antagonism to the vasopressor response (Dyckes et al.); settings: estimated in vivo pA2 (Schild); effective dose / 67 mL/kg; (n) in parentheses
Experimental: Antagonism to the vasopressor response was estimated in accordance with Dyckes et al., J. Med. Chem., vol. 17 (1974) at 969. The values are expressed as pA2 values, defined by Schild et al., Br. J. Pharmacol., vol. 2 (1947) at 189.
as §1

Compound | antidiuretic potency / activity (in words) [1] | vasopressor antagonism (in words) [2] | Anti-Antidiuretic pA2 [3] | Antivasopressor pA2 [4]
[1-(β-mercapto-β,β-cyclopentamethylenepropionic acid), 4-valine, 8-D-arginine] vasopressin | weak antidiuretic activity | potent antagonists of the vasopressor response to AVP | – | –
CC(C)[C@@H]1NC(=O)[C@H](Cc2ccccc2)NC(=O)[C@@H](Cc2ccc(O)cc2)NC(=O)CC2(CCCCC2)SSC[C@@H](C(=O)N2CCC[C@H]2C(=O)N[C@@H](CCCNC(=N)N)C(=O)NCC(N)=O)NC(=O)[C@H](CC(N)=O)NC1=O [d(CH2)5 D-Tyr VAVP, [1-(β-mercapto-β,β-cyclopentamethylenepropionic acid), 2-D-tyrosine, 4-valine]-arginine vasopressin] ([dY]FVNCPRG-NH2; linker N-5 via X1) | – | – | 7.51 ± 0.08 | 8.41 ± 0.11
1-deamino[4-valine, 8-D-arginine] vasopressin [dVDAVP] | highly active and selective antidiuretic peptide | – | – | –
COc1ccc(C[C@H]2NC(=O)CC3(CCCCC3)SSC[C@@H](C(=O)N3CCC[C@H]3C(=O)N[C@@H](CCCNC(=N)N)C(=O)NCC(N)=O)NC(=O)[C@H](CC(N)=O)NC(=O)[C@H](C(C)C)NC(=O)[C@H](Cc3ccccc3)NC2=O)cc1 [d(CH2)5 --D-Tyr(Me) VAVP] ([dY](Me)FVNCPRG-NH2; linker N-5 via X1) | – | – | 7.77 ± 0.07 | 8.48 ± 0.08
CC[C@@H](C)[C@H]1NC(=O)CC2(CCCCC2)SSC[C@@H](C(=O)N2CCC[C@H]2C(=O)N[C@@H](CCCNC(=N)N)C(=O)NCC(N)=O)NC(=O)[C@H](CC(N)=O)NC(=O)[C@H](C(C)C)NC(=O)[C@H](Cc2ccccc2)NC1=O [d(CH2)5 [D-Ile^2] VAVP, [1-(β-mercapto-β,β-cyclopentamethylenepropionic acid), 2-D-isoleucine, 4-valine]-arginine vasopressin] ([dI]FVNCPRG-NH2; linker N-5 via X1) | – | – | 7.98 ± 0.05 | 6.94 ± 0.08
CCOc1ccc(C[C@@H]2NC(=O)CC3(CCCCC3)SSC[C@@H](C(=O)N3CCC[C@H]3C(=O)N[C@@H](CCCNC(=N)N)C(=O)NCC(N)=O)NC(=O)[C@H](CC(N)=O)NC(=O)[C@H](C(C)C)NC(=O)[C@H](Cc3ccccc3)NC2=O)cc1 [d(CH2)5 Tyr(Et) VAVP] (Y(Et)FVNCPRG-NH2; linker N-5 via X1) | – | – | 7.57 ± 0.06 | 8.16 ± 0.09
CC(C)Oc1ccc(C[C@@H]2NC(=O)CC3(CCCCC3)SSC[C@@H](C(=O)N3CCC[C@H]3C(=O)N[C@H](CCCNC(=N)N)C(=O)NCC(N)=O)NC(=O)[C@H](CC(N)=O)NC(=O)[C@H](C(C)C)NC(=O)[C@H](Cc3ccccc3)NC2=O)cc1 [d(CH2)5 Tyr(i-Pr) VDAVP] (Y(iPr)FVNCP[dR]G-NH2; linker N-5 via X1) | – | – | 6.88 ± 0.07 | 8.41 ± 0.08
CC(C)C[C@H]1NC(=O)CC2(CCCCC2)SSC[C@@H](C(=O)N2CCC[C@H]2C(=O)N[C@@H](CCCNC(=N)N)C(=O)NCC(N)=O)NC(=O)[C@H](CC(N)=O)NC(=O)[C@H](C(C)C)NC(=O)[C@H](Cc2ccccc2)NC1=O [d(CH2)5 [D-Leu^2] VAVP, [1-(β-mercapto-β,β-cyclopentamethylenepropionic acid), 2-D-leucine, 4-valine]-arginine vasopressin] ([dL]FVNCPRG-NH2; linker N-5 via X1) | – | – | 7.79 ± 0.12 | 6.45 ± 0.09
COc1ccc(C[C@@H]2NC(=O)CC3(CCCCC3)SSC[C@@H](C(=O)N3CCC[C@H]3C(=O)N[C@@H](CCCNC(=N)N)C(=O)NCC(N)=O)NC(=O)[C@H](CC(N)=O)NC(=O)[C@H](C(C)C)NC(=O)[C@H](Cc3ccccc3)NC2=O)cc1 [d(CH2)5 Tyr(Me) VAVP] (Y(Me)FVNCPRG-NH2; linker N-5 via X1) | – | – | 7.35 ± 0.06 | 8.32 ± 0.08
CC(C)Oc1ccc(C[C@@H]2NC(=O)CC3(CCCCC3)SSC[C@@H](C(=O)N3CCC[C@H]3C(=O)N[C@@H](CCCNC(=N)N)C(=O)NCC(N)=O)NC(=O)[C@H](CC(N)=O)NC(=O)[C@H](C(C)C)NC(=O)[C@H](Cc3ccccc3)NC2=O)cc1 [d(CH2)5 Tyr(i-Pr) VAVP] (Y(iPr)FVNCPRG-NH2; linker N-5 via X1) | – | – | 7.32 ± 0.06 | 8.36 ± 0.09
CCOc1ccc(C[C@@H]2NC(=O)CC3(CCCCC3)SSC[C@@H](C(=O)N3CCC[C@H]3C(=O)N[C@H](CCCNC(=N)N)C(=O)NCC(N)=O)NC(=O)[C@H](CC(N)=O)NC(=O)[C@H](C(C)C)NC(=O)[C@H](Cc3ccccc3)NC2=O)cc1 [d(CH2)5 Tyr(Et) VDAVP] (Y(Et)FVNCP[dR]G-NH2; linker N-5 via X1) | – | – | 7.10 ± 0.08 | 8.31 ± 0.05
CC(C)[C@@H]1NC(=O)[C@H](Cc2ccccc2)NC(=O)[C@@H](Cc2ccccc2)NC(=O)CC2(CCCCC2)SSC[C@@H](C(=O)N2CCC[C@H]2C(=O)N[C@@H](CCCNC(=N)N)C(=O)NCC(N)=O)NC(=O)[C@H](CC(N)=O)NC1=O [d(CH2)5 D-Phe VAVP, [1-(β-mercapto-β,β-cyclopentamethylenepropionicacid), 2-D-phenylalanine, 4-valine]-arginine vasopressin] ([dF]FVNCPRG-NH2; linker N-5 via X1) | – | – | 8.07 ± 0.09 | 8.06 ± 0.03
COc1ccc(C[C@@H]2NC(=O)CC3(CCCCC3)SSC[C@@H](C(=O)N3CCC[C@H]3C(=O)N[C@H](CCCNC(=N)N)C(=O)NCC(N)=O)NC(=O)[C@H](CC(N)=O)NC(=O)[C@H](C(C)C)NC(=O)[C@H](Cc3ccccc3)NC2=O)cc1 [d(CH2)5 Tyr(Me) VDAVP, [1-(β-mercapto-β,β-cyclopentamethylenepropionic acid), 2-O-methyltyrosine, 4-valine, 8-D-arginine] vasopressin] (Y(Me)FVNCP[dR]G-NH2; linker N-5 via X1) | – | – | 6.68 ± 0.11 | 8.44 ± 0.07
CC(C)[C@@H]1NC(=O)[C@H](Cc2ccccc2)NC(=O)[C@@H](CCCNC(=N)N)NC(=O)CC2(CCCCC2)SSC[C@@H](C(=O)N2CCC[C@H]2C(=O)N[C@@H](CCCNC(=N)N)C(=O)NCC(N)=O)NC(=O)[C@H](CC(N)=O)NC1=O [d(CH2)5 [D-Arg^2] VAVP, [1-(β-mercapto-β,β-cyclopentamethylenepropionic acid), 2-D-arginine, 4-valine]-arginine vasopressin] ([dR]FVNCPRG-NH2; linker N-5 via X1) | – | – | < 5.9 | ~ 5.4
CCCOc1ccc(C[C@@H]2NC(=O)CC3(CCCCC3)SSC[C@@H](C(=O)N3CCC[C@H]3C(=O)N[C@@H](CCCNC(=N)N)C(=O)NCC(N)=O)NC(=O)[C@H](CC(N)=O)NC(=O)[C@H](C(C)C)NC(=O)[C@H](Cc3ccccc3)NC2=O)cc1 [d(CH2)5 Tyr(n-Pr) VAVP] (Y(Propyl)FVNCPRG-NH2; linker N-5 via X1) | – | – | 7.29 ± 0.07 | 8.22 ± 0.04
CC(C)[C@@H]1NC(=O)[C@H](Cc2ccccc2)NC(=O)[C@@H](C)NC(=O)CC2(CCCCC2)SSC[C@@H](C(=O)N2CCC[C@H]2C(=O)N[C@@H](CCCNC(=N)N)C(=O)NCC(N)=O)NC(=O)[C@H](CC(N)=O)NC1=O [d(CH2)5 [D-Ala^2] VAVP, [1-(β-mercapto-β,β-cyclopentamethylenepropionic acid), 2-D-alanine, 4-valine]-arginine vasopressin] ([dA]FVNCPRG-NH2; linker N-5 via X1) | – | – | – | 5.79 ± 0.08
CC(C)[C@@H]1NC(=O)[C@H](Cc2ccccc2)NC(=O)[C@@H](C(C)C)NC(=O)CC2(CCCCC2)SSC[C@@H](C(=O)N2CCC[C@H]2C(=O)N[C@@H](CCCNC(=N)N)C(=O)NCC(N)=O)NC(=O)[C@H](CC(N)=O)NC1=O [d(CH2)5 [D-Val^2] VAVP, [1-(β-mercapto-β,β-cyclopentamethylenepropionic acid), 2-D-valine, 4-valine]-arginine vasopressin] ([dV]FVNCPRG-NH2; linker N-5 via X1) | – | – | 7.48 ± 0.06 | 6.41 ± 0.05
CCCOc1ccc(C[C@@H]2NC(=O)CC3(CCCCC3)SSC[C@@H](C(=O)N3CCC[C@H]3C(=O)N[C@H](CCCNC(=N)N)C(=O)NCC(N)=O)NC(=O)[C@H](CC(N)=O)NC(=O)[C@H](C(C)C)NC(=O)[C@H](Cc3ccccc3)NC2=O)cc1 [d(CH2)5 Tyr(n-Pr) VDAVP] (Y(Propyl)FVNCP[dR]G-NH2; linker N-5 via X1) | – | – | 6.67 ± 0.05 | 7.86 ± 0.10
CCOc1ccc(C[C@H]2NC(=O)CC3(CCCCC3)SSC[C@@H](C(=O)N3CCC[C@H]3C(=O)N[C@@H](CCCNC(=N)N)C(=O)NCC(N)=O)NC(=O)[C@H](CC(N)=O)NC(=O)[C@H](C(C)C)NC(=O)[C@H](Cc3ccccc3)NC2=O)cc1 [d(CH2)5 --D-Tyr(Et) VAVP] ([dY](Et)FVNCPRG-NH2; linker N-5 via X1) | – | – | 7.81 ± 0.07 | 8.22 ± 0.12
CC(C)[C@@H]1NC(=O)[C@H](Cc2ccccc2)NC(=O)[C@@H](Cc2ccccc2)NC(=O)CC2(CCCCC2)SSC[C@@H](C(=O)N2CCC[C@H]2C(=O)N[C@H](CCCNC(=N)N)C(=O)NCC(N)=O)NC(=O)[C@H](CC(N)=O)NC1=O [d(CH2)5 D-Phe VDAVP, [1-(β-mercapto-β,β-cyclopentamethylenepropionic acid), 2-D-phenylalanine, 4-valine, 8-D-arginine] vasopressin] ([dF]FVNCP[dR]G-NH2; linker N-5 via X1) | – | – | 7.07 ± 0.10 | 7.98 ± 0.07
